Data: patent publication US20250115636A1, “PEPTIDOMIMETIC INHIBITORS OF PROTEIN N-TERMINAL […] 1, COMPOSITION, AND METHOD OF USE” (Purdue Research Foundation, priority 2022, published 2025)
Like-named read-outs stand apart in the source and are kept apart here.

Legend:
NTMT1 [1] = biological target: T1, NTMT1 (Homo sapiens, UniProt Q9BV86); conditions: cited from earlier work
T1 construct: made in house
T1 sequence (Q9BV86 1-223): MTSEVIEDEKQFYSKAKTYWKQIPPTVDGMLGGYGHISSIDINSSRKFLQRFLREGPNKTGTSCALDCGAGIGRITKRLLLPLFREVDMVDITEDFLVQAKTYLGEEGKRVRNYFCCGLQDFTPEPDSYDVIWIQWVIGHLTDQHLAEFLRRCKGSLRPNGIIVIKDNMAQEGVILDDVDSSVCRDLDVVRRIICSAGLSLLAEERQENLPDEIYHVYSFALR

[2] = tested on: panel of 41 methyltransferases; conditions: among a panel of 41 methyltransferases; cited from earlier work
HCT116 cells = assay: Cytotoxicity / cell viability, alamarBlue (resazurin) assay; format: cell-based; conditions: Homo sapiens, HCT-116, normal HCT116 cells
Source text: To test this hypothesis, compound 1a was selected to evaluate its effects on both wild-type and NTMT1 knockout HCT116 cells (FIG. 3B).

NTMT1 [3] = biological target: T1, NTMT1; assay: NTMT1 biochemical assay (SAHH-coupled fluorescence assay)
in vitro = conditions: PAMPA
Protocol: The stock solutions in 10 mM DMSO was diluted with PBS to a final concentration of 200 μM with 2% DMSO (v/v). Verapamil was added as a control. The pre-coated PAMPA plate system was warmed to room temperature, and the donor plate (bottom) was filled with 300 μL of the diluted sample solution while the acceptor plate (top) was filled with 200 μL of the buffer. […] The permeability of each compound was calculated using the formula:
• CD (t)=compound concentration in donor well at time t. • CA (t)=compound concentration in acceptor well at time t. • VD=donor well volume • VA=acceptor well volume • A=filter area • t=incubation time

[4] = tested on: cellular α-N-terminal methylation level in HCT116 cells; assay: Cellular N-terminal methylation assay (Western blot, anti-me3-SPK); format: cell-based, human; conditions: for IC50: Homo sapiens, HCT-116, HCT116 cells, Western blot, n = 2
Protocol: (§1) FIGS. 4A-4C. Cellular N-terminal methylation assay of GD562 (1d), GD564 (1f), and GD573 (1e) in HCT116 cells. Representative Western blot results of the effects of GD562 (0-300 μM) on the cellular methylation level (n=2) (FIG. 4A). Representative Western blot results of the effects of GD564 (0-100 μM) on the cellular methylation level (n=2) (FIG. 4B). Representative Western blot results of the effects of GD573 (0-300 μM) on the cellular methylation level (n=2) (FIG. 4C). Image quantification was done using ImageJ software (NIH).
Cellular N-methylation level. […] The membrane was then blocked for 1 hour in 5% milk TBST solution and washed with 1×TBST solution three times. […] Image quantification was done using ImageJ software (NIH).

me3-SET [5] = assay: Cellular N-terminal methylation assay, me3-SET; format: cell-based; conditions: Homo sapiens, HCT-116, HCT116 cells
Protocol: as §1, with “.” for “FIGS. 4A-4C. Cellular N-terminal methylation assay of GD562 (1d), GD564 (1f), and GD573 (1e) in HCT116 cells.”
(§2) […]. Cellular N-methylation level. […] The membrane was then blocked for 1 hour in 5% milk TBST solution and washed with 1×TBST solution three times. […] Image quantification was done using ImageJ software (NIH).

me3-RCC1 [6] = assay: Cellular N-terminal methylation assay, me3-RCC1; format: cell-based, human; conditions: HCT116 cells; for IC50: Homo sapiens, HCT-116
Protocol: as §1, with “.” for “FIGS. 4A-4C. Cellular N-terminal methylation assay of GD562 (1d), GD564 (1f), and GD573 (1e) in HCT116 cells.”
as §2

me3-SET [7] = conditions: at 300 μM in HCT116 cells, previously reported; cited from earlier work
me3-RCC1 [8] = conditions: cited from earlier work
[9] = recombinant NTMT1, n = 2, mean ± SD

Structure (SMILES) | IC50 (NTMT1 [3]; [9]) [µM] | Papp at 5 h, 200 μM (in vitro) [×10⁻⁶ cm/s] | IC50 [4] [µM] | GI50 (HCT116 cells) [µM] | also measured
NCCCC[C@H](NC(=O)[C@@H]1CCCN1C(=O)Cc1ccc(O)cc1)C(=O)N[C@@H](CCCN=C(N)N)C(N)=O [BM30] | – | – | – | – | IC50 (NTMT1 [1]; previously reported inhibitors): 0.89 ± 0.1 µM; Selectivity for NTMT1/2 [2]: over 100 fold
NCCCC[C@H](NC(=O)[C@@H]1CCCN1C(=O)Cc1cccc2ccccc12)C(=O)NCCc1ccccc1 [Compound 1d] | – | 0.26 ± 0.06 | ~50 | > 300 | IC50 (me3-SET [5]; read-out: Cellular IC50 on N-terminal methylation of SET): ~50 µM; IC50 (me3-SET [5]; read-out: Cellular IC50 on me3-SET): ~50 µM; Increase in cellular inhibition activity on me3-RCC1 compared to DC541 (me3-RCC1 [6]): over 2 fold; IC50 (me3-RCC1 [6]; read-out: Cellular IC50 on N-terminal methylation of RCC1): ~50 µM; IC50 (me3-RCC1 [6]; read-out: Cellular IC50 on me3-RCC1): ~50 µM; Difference between enzymatic and cellular IC50 values [4]: ~50 fold
NCCCC[C@H](NC(=O)[C@@H]1CCCN1C(=O)Cc1cccc2ccccc12)C(=O)NCCCc1ccccc1 [Compound 1e] | 0.65 ± 0.01 | 0.17 ± 0.08 | ~100 | > 300 | –
NCCCC[C@H](NC(=O)[C@@H]1CCCN1C(=O)Cc1cccc2ccccc12)C(=O)NCC1CCCCC1 [Compound 1f] | 0.94 ± 0.03 | 0.47 | ~100 | > 300 | –
NCCCC[C@H](NC(=O)[C@@H]1CCCN1C(=O)Cc1cccc2ccccc12)C(=O)NCCc1ccc(-c2ccccc2)cc1 [Compound 1j] | – | 0.9 | – | – | IC50 (NTMT1 [3]): 2.5 ± 0.09 µM
NCCCC[C@H](NC(=O)[C@@H]1CCCN1C(=O)Cc1cccc2ccccc12)C(=O)NCCc1cccc(-c2ccccc2)c1 [Compound 1k] | 0.69 ± 0.08 | 1.3 | – | 48 to 135 | Permeability (in vitro): ±0.4 10^−6 cm/s

The next lines start with results.

IC50 (NTMT1 [3]; [9]) [µM] | Papp at 5 h, 200 μM (in vitro) [×10⁻⁶ cm/s] | IC50 [4] [µM] | Structure (SMILES) | GI50 (HCT116 cells) [µM] | also measured
0.17 ± 0.008 | – | – | NCCCC[C@H](NC(=O)[C@@H]1CCCN1C(=O)Cc1cccc2ccccc12)C(=O)Nc1cccc(Br)c1 [Compound 1a] | 48 to 135 | –
0.18 ± 0.007 | – | – | NCCCC[C@H](NC(=O)[C@@H]1CCCN1C(=O)Cc1cccc2ccccc12)C(=O)Nc1ccc(Br)cc1 [Compound 1b] | 48 to 135 | –
0.91 ± 0.03 | 0.24 ± 0.06 | < 300 | NCCCC[C@H](NC(=O)[C@@H]1CCCN1C(=O)Cc1cccc2ccccc12)C(=O)NCc1ccccc1 [Compound 1c] | > 300 | –
0.58 ± 0.03 | 0.6 ± 0.1 | < 300 | NCCCC[C@H](NC(=O)[C@@H]1CCCN1C(=O)Cc1cccc2ccccc12)C(=O)NCc1cccc(Br)c1 [Compound 1g] | – | –
0.82 ± 0.07 | 0.9 ± 0.2 | < 300 | NCCCC[C@H](NC(=O)[C@@H]1CCCN1C(=O)Cc1cccc2ccccc12)C(=O)NCc1ccc(Br)cc1 [Compound 1h] | – | –
0.34 ± 0.03 | – | – | NCCCC[C@H](NC(=O)[C@@H]1CCCN1C(=O)Cc1cccc2ccccc12)C(=O)Nc1ccccc1C(N)=O [DC541] | – | Decrease in inhibitory activity on recombinant NTMT1 compared to DC113 (NTMT1 [1]): ~3 fold; IC50/IC50 (DC541) (NTMT1 [3]; ratio of NTMT1 IC50 to that of DC541): 1.0; Inhibition of me3-SET level (me3-SET [7]): did not show any inhibition; IC50 (me3-RCC1 [8]; HCT116, previously reported, read-out: Cellular IC50 on the me3-RCC1 level): ~100 µM; Enhancement of cellular inhibition compared to DC113 (me3-RCC1 [8]): about 10 fold
